Measurements taken from EP4467141A1, “PYRAZOLO-QUINOLINES AS SELECTIVE INHIBITORS OF GENOTOXIC STRESS-INDUCED IKK/NF- KB PATHWAYS FOR CANCER THERAPY” (Max-Delbrück-Centrum für Molekulare Medizin in der …, priority 2023, dated 2024).

What was measured:
Experiment in all cases: Kinase panel study
Assay type in all cases: biochemical
Settings in all cases: read-out: Percentage of inhibition; for inhibition at 1 µM: 1000nM; for inhibition at 10 µM: 10000nM
AURKC (Aurora C) = target: T1, AURKC (Aurora C) (Homo sapiens, UniProt Q9UQB9)
T1 construct: purchased Thermo Fisher Scientific
T1 sequence (Q9UQB9 1-309): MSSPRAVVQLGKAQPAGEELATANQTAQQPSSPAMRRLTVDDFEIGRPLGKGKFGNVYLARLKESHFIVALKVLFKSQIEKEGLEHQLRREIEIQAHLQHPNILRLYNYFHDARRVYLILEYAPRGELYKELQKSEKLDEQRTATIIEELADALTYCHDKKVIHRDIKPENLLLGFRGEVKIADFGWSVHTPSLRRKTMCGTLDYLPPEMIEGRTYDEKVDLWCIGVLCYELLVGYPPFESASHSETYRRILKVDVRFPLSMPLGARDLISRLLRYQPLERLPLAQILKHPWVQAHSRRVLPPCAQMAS
How it was run: (§1)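 Compounds were tested in vitro against the kinase panel by a service lab. Assays followed standard ZLyte or Adapta protocols. Activity was recorded as % inhibition at 10 µM or 1 µM, with IC50 values where determined.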

FGFR3 V555M = target: T2, FGFR3 V555M (Homo sapiens, UniProt P22607, V555M)
T2 construct: purchased Thermo Fisher Scientific
T2 sequence (P22607 23-806 V555M): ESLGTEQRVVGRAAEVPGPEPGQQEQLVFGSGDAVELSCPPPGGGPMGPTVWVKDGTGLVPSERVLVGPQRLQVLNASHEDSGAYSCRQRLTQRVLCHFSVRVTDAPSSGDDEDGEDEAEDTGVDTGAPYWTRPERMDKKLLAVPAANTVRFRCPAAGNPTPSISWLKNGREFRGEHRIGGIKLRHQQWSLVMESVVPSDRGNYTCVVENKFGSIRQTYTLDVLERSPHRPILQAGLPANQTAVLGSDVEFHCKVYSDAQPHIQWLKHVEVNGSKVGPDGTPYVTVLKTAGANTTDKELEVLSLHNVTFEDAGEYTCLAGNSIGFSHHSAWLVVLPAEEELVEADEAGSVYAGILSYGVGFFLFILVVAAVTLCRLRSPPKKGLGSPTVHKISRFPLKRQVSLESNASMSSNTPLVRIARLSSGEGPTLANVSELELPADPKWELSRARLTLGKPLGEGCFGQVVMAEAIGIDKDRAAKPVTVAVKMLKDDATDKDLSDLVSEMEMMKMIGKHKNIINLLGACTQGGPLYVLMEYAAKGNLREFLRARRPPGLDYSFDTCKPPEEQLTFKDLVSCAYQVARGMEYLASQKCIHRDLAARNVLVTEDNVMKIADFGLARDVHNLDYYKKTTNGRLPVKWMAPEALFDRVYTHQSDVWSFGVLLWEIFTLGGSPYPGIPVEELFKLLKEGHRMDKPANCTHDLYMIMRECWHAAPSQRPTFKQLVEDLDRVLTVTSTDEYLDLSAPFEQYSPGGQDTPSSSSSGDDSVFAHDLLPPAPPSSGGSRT
How it was run: as §1

GRK4 = target: T3, GRK4 (Homo sapiens, UniProt P32298)
T3 construct: purchased Thermo Fisher Scientific
T3 sequence (P32298 whole entry): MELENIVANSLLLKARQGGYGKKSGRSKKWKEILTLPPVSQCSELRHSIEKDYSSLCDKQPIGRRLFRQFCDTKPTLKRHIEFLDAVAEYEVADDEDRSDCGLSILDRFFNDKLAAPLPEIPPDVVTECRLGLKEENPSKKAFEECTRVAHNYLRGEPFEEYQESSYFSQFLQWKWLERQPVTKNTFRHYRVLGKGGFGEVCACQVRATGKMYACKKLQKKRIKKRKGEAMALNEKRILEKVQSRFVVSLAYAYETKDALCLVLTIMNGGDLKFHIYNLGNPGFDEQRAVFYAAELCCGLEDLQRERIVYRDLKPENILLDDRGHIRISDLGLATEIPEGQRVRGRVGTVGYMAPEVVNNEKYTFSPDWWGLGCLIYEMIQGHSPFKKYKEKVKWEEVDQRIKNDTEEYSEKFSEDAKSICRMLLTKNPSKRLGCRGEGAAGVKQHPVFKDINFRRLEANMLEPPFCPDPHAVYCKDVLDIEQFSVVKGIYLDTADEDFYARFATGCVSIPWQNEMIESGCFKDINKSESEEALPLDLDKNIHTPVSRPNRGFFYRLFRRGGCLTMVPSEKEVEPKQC
How it was run: as §1

JAK3 = target: T4, JAK3 (Homo sapiens, UniProt P52333)
T4 construct: purchased Thermo Fisher Scientific
T4 sequence (P52333 1-1124): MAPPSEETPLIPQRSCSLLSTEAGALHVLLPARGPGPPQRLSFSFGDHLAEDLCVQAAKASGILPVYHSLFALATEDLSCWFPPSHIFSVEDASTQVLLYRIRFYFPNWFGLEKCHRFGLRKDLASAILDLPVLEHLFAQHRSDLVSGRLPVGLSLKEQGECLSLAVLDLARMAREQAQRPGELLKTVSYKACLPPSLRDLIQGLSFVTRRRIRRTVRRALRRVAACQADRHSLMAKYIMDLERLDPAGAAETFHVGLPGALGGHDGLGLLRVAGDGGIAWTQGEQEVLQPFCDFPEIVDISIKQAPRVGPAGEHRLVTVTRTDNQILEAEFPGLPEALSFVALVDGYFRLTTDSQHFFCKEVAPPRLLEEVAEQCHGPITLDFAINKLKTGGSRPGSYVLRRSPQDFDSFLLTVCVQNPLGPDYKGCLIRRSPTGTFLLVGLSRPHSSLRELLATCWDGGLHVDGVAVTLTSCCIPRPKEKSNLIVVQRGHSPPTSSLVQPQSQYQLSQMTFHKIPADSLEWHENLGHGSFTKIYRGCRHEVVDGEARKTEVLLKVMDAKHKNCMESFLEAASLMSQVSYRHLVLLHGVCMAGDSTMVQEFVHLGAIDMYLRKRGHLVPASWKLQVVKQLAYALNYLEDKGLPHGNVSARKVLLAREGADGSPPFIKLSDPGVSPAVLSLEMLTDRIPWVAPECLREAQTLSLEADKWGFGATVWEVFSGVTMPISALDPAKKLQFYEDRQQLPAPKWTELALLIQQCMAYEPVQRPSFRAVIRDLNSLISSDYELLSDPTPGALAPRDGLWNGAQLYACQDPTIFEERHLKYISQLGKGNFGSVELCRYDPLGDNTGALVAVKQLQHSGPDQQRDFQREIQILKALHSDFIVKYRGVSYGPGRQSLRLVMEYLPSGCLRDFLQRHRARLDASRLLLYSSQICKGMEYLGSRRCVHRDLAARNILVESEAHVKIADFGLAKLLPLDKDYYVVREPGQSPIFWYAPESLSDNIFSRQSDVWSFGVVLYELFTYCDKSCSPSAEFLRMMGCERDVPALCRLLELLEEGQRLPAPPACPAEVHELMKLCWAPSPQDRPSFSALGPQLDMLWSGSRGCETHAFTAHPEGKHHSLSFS
How it was run: as §1

MAPKAPK5 (PRAK) = target: T5, MAPKAPK5 (PRAK) (Homo sapiens, UniProt Q8IW41)
T5 construct: purchased Thermo Fisher Scientific
T5 sequence (Q8IW41 1-473): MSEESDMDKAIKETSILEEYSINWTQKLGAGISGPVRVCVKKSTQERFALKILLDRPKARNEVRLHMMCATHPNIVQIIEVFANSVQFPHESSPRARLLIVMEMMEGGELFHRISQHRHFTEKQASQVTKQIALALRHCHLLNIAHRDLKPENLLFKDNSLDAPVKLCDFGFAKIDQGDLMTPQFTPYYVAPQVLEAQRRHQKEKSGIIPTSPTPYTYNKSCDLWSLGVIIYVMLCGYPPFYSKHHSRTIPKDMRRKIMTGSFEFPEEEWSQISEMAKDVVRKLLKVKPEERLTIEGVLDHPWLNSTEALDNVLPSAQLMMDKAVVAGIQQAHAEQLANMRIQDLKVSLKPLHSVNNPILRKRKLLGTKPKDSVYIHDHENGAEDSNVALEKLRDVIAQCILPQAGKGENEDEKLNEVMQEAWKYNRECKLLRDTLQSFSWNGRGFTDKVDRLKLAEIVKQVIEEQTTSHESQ
How it was run: as §1

PHKG1 = target: T6, PHKG1 (Homo sapiens, UniProt Q16816)
T6 construct: purchased Thermo Fisher Scientific
T6 sequence (Q16816 whole entry): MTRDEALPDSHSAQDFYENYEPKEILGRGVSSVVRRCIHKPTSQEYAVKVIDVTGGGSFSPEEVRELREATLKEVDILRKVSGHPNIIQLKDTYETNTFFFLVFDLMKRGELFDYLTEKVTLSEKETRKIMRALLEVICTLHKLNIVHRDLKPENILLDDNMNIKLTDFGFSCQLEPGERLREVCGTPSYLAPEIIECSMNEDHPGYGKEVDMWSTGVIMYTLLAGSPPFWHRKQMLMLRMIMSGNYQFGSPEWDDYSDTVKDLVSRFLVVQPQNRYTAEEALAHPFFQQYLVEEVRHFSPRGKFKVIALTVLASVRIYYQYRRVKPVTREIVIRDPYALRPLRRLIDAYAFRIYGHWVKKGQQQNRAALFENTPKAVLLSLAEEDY
How it was run: as §1

Compound | inhibition at 1 µM (AURKC (Aurora C)) [%] | inhibition at 10 µM (AURKC (Aurora C)) [%] | inhibition at 1 µM (FGFR3 V555M) [%] | inhibition at 10 µM (FGFR3 V555M) [%] | inhibition at 1 µM (GRK4) [%] | inhibition at 10 µM (GRK4) [%] | inhibition at 1 µM (JAK3) [%] | inhibition at 10 µM (JAK3) [%] | inhibition at 1 µM (MAPKAPK5 (PRAK)) [%] | inhibition at 10 µM (MAPKAPK5 (PRAK)) [%] | inhibition at 1 µM (PHKG1) [%] | inhibition at 10 µM (PHKG1) [%]
COc1ccc2c(c1OC)c(=O)n1c3ccc(O)cc3c3ccnc2c31 [MW01, 5-Hydroxy-10,11-dimethoxy-9H-benzo[c]indolo[3,2,1-ij][1,5]naphthyridin-9-one] | 8 | 10 | 5 | 11 | 8 | 12 | 9 | 20 | 8 | 18 | 8 | 12
COc1ccc2cc3c(N)nn(C(=O)c4cccc(N(C)C)c4)c3nc2c1 [MW05, (3-Amino-7-methoxypyrazolo[3,4-b]quinolin-1-yl)-[3-(dimethylamino)phenyl]methanone] | 9 | 9 | -30 | -9 | -1 | 2 | 4 | -6 | 7 | 7 | 3 | -11
